# Experimental data as given in US20260232767A1, “INTERLEUKIN-23 RECEPTOR ANTAGONIST PEPTIDES FOR USE IN THE TREATMENT OF PSORIASIS” (Janssen Pharmaceutica NV, priority 2023, published 2026).
# Read-outs that look alike come from different tables or passages of the source.
# Tests used:
# [1] = tested on: subjects with moderate-to-severe plaque psoriasis; assay: DLQI, Example 1; assay type: in vivo, human; conditions: each dose group vs placebo; Week 16
# Excerpt: The Dermatological Life Quality Index (DLQI) is a dermatology-specific health-related quality of life (HRQoL) instrument designed to assess the impact of the disease on a participant's HRQoL. It is a 10-item questionnaire that assesses HRQoL over the past week and in addition to evaluating overall HRQoL, can be used to assess 6 different aspects that may affect quality of life: symptoms and feelings, daily activities, leisure, work or school performance, personal relationships, and treatment. The total score ranges from 0 to 30 with a higher score indicating greater impact on quality of life (QoL).
# Efficacy, PK, immunogenicity, biomarker, pharmacogenomic, and safety criteria were measured during the treatment. Subjects were provided with an electronic device to enter patient-reported outcome (PRO) data at each study visit. All visit-specific PRO assessments were conducted/completed before any tests, procedures or other clinical assessments, with the exception of the urine pregnancy test and urinalysis, to prevent influencing subject perceptions.
# [2] = tested on: anti-drug antibodies to the IL-23 receptor antagonist peptide; conditions: for Subjects negative for treatment-emergent anti-peptide antibodies, % / Subjects positive for treatment-emergent anti-peptide antibodies, %: through Week 16 or Follow-up Week 20; for Subjects positive for treatment-emergent anti-peptide antibodies at any time, %: through Week 16
# [3] = tested on: IL-17F; assay: Serum IL-17F immunoassay; assay type: in vivo, human; conditions: all treatment groups relative to placebo
# Method: (§1) To evaluate psoriasis relevant systemic biomarkers (Beta-defensin 2 (BD-2), IL-17A, IL-17F, and IL-22), protein concentrations were measured in serum using validated immunoassays. The IL-17A (Catalog #03-0159-00) and IL-17F (Catalog #03-0164-00) assays used are commercially available SMC™-based high sensitivity immunoassays produced by the EMD Millipore Corporation. The manufacturer's protocols were followed and analyzed on the Erenna® instrument platform except for the use of 11 μL Elution Buffer B. While the IL-22 assay is also based on the SMC™ platform and run on the Erenna instrument, the assay was developed internally as a coated plate-based assay. The development and optimization of the BD-2 assay was done on the Meso Scale Discovery on the electrochemiluminescence-based platform, a division of Meso Scale Diagnostics LLC (MSD). For all assays, concentration adjustments were made to values measuring below empirically defined LLOQ or empirically defined ULOQ values. Assay QC verified performance of generated standard curves (average concentration recovery & CV of technical replicates) and control samples (inter-assay plate agreement (CV)).
# (§2) Serum levels of psoriasis disease biomarkers BD-2, IL-22, IL-17A, and IL-17F relative to baseline were analyzed in patients who received placebo or the compound of Formula (I) and compared to clinical response. […]
# [4] = tested on: BD-2; assay: Serum BD-2 immunoassay; assay type: in vivo, human; conditions: all treatment groups vs placebo; as early as Week 4
# Method: as §1, §2
structure (smiles),measurement,setting,value
"CC(=O)NCCCC[C@@H]1NC(=O)[C@H](Cc2c[nH]c3c(C)cccc23)NC(=O)[C@H]([C@@H](C)O)NC(=O)[C@H](CC(N)=O)NC(=O)[C@@H](NC(C)=O)C(C)(C)SSC(C)(C)[C@@H](C(=O)N[C@@H](Cc2ccc(OCCN)cc2)C(=O)N[C@@H](Cc2ccc3ccccc3c2)C(=O)NC2(C(=O)N[C@@H](CCC(=O)O)C(=O)N[C@@H](CC(N)=O)C(=O)N[C@@H](Cc3cccnc3)C(=O)N(C)CC(N)=O)CCOCC2)NC1=O [IL-23 receptor antagonist peptide, Ac-[Pen]*-N-T-[W(7-Me)]-[Lys(Ac)]-[Pen]*-Phe[4-(2-aminoethoxy)]-[2-Nal]-[THP]-E-N-[3-Pal]-Sarc-NH2 (*[Pen]-[Pen]* formdisulfidebond)]",Proportion achieving DLQI score of 0 or 1,[1],significantly higher
same,"Footnote d group: Baseline titers 1:50, n subjects","[2]; 25 mg BID, N=41",0
same,"Peak titer group <50, n subjects","[2]; 25 mg BID, N=41",0
same,"Peak titer group >50-<100, n subjects","[2]; 25 mg BID, N=41",0
same,"Peak titer group ≥100-<1000, n subjects","[2]; 25 mg BID, N=41",0
same,"Peak titer group ≥1000, n subjects","[2]; 25 mg BID, N=41",0
same,"Positive at baseline: Baseline titers 1:50, n subjects","[2]; 25 mg BID, N=41",0
same,"Treatment-boosted (footnote c): Baseline titers 1:50, n subjects","[2]; 25 mg BID, N=41",0
same,"Treatment-emergent: Peak titers 1:50, n subjects","[2]; 25 mg BID, N=41",0
same,"Subjects negative for treatment-emergent anti-peptide antibodies, %","[2]; 25 mg BID, N=41",100%
same,"Footnote d group: Baseline titers 1:50, n subjects","[2]; 25 mg QD, N=42",0
same,"Peak titer group <50, n subjects","[2]; 25 mg QD, N=42",1
same,"Peak titer group >50-<100, n subjects","[2]; 25 mg QD, N=42",0
same,"Peak titer group ≥100-<1000, n subjects","[2]; 25 mg QD, N=42",0
same,"Peak titer group ≥1000, n subjects","[2]; 25 mg QD, N=42",0
same,"Positive at baseline: Baseline titers 1:50, n subjects","[2]; 25 mg QD, N=42",0
same,"Treatment-boosted (footnote c): Baseline titers 1:50, n subjects","[2]; 25 mg QD, N=42",0
same,"Treatment-emergent: Peak titers 1:50, n subjects","[2]; 25 mg QD, N=42",1
same,"Subjects positive for treatment-emergent anti-peptide antibodies at any time, %","[2]; 25 mg QD, N=42",(2.4%)
same,"Subjects negative for treatment-emergent anti-peptide antibodies, %","[2]; 25 mg QD, N=42",97.6%
same,"Subjects positive for treatment-emergent anti-peptide antibodies, %","[2]; 25 mg QD, N=42",2.4%
same,"Footnote d group: Baseline titers 1:50, n subjects","[2]; 50 mg QD, N=43",3
same,"Peak titer group <50, n subjects","[2]; 50 mg QD, N=43",1
same,"Peak titer group >50-<100, n subjects","[2]; 50 mg QD, N=43",0
same,"Peak titer group ≥100-<1000, n subjects","[2]; 50 mg QD, N=43",0
same,"Peak titer group ≥1000, n subjects","[2]; 50 mg QD, N=43",0
same,"Positive at baseline: Baseline titers 1:50, n subjects","[2]; 50 mg QD, N=43",3
same,"Subjects positive at baseline who were treatment-boosted for antibodies (footnote d: titers did not increase 2-fold), %","[2]; 50 mg QD, N=43",7.0%
same,"Subjects positive for anti-peptide antibodies at baseline, %","[2]; 50 mg QD, N=43",7.0%
same,"Treatment-boosted (footnote c): Baseline titers 1:50, n subjects","[2]; 50 mg QD, N=43",0
same,"Treatment-emergent: Peak titers 1:50, n subjects","[2]; 50 mg QD, N=43",1
same,"Subjects positive for treatment-emergent anti-peptide antibodies at any time, %","[2]; 50 mg QD, N=43",(2.3%)
same,"Subjects negative for treatment-emergent anti-peptide antibodies, %","[2]; 50 mg QD, N=43",97.7%
same,"Subjects positive for treatment-emergent anti-peptide antibodies, %","[2]; 50 mg QD, N=43",2.3%
same,"Footnote d group: Baseline titers 1:50, n subjects","[2]; 100 mg BID, N=41",0
same,"Peak titer group <50, n subjects","[2]; 100 mg BID, N=41",3
same,"Peak titer group >50-<100, n subjects","[2]; 100 mg BID, N=41",0
same,"Peak titer group ≥100-<1000, n subjects","[2]; 100 mg BID, N=41",0
same,"Peak titer group ≥1000, n subjects","[2]; 100 mg BID, N=41",0
same,"Positive at baseline: Baseline titers 1:50, n subjects","[2]; 100 mg BID, N=41",0
same,"Treatment-boosted (footnote c): Baseline titers 1:50, n subjects","[2]; 100 mg BID, N=41",0
same,"Treatment-emergent: Peak titers 1:50, n subjects","[2]; 100 mg BID, N=41",3
same,"Subjects positive for treatment-emergent anti-peptide antibodies at any time, %","[2]; 100 mg BID, N=41",(7.3%)
same,"Subjects negative for treatment-emergent anti-peptide antibodies, %","[2]; 100 mg BID, N=41",92.7%
same,"Subjects positive for treatment-emergent anti-peptide antibodies, %","[2]; 100 mg BID, N=41",7.3%
same,"Footnote d group: Baseline titers 1:50, n subjects","[2]; 100 mg QD, N=42",0
same,"Peak titer group <50, n subjects","[2]; 100 mg QD, N=42",3
same,"Peak titer group >50-<100, n subjects","[2]; 100 mg QD, N=42",0
same,"Peak titer group ≥100-<1000, n subjects","[2]; 100 mg QD, N=42",0
same,"Peak titer group ≥1000, n subjects","[2]; 100 mg QD, N=42",0
same,"Positive at baseline: Baseline titers 1:50, n subjects","[2]; 100 mg QD, N=42",0
same,"Treatment-boosted (footnote c): Baseline titers 1:50, n subjects","[2]; 100 mg QD, N=42",0
same,"Treatment-emergent: Peak titers 1:50, n subjects","[2]; 100 mg QD, N=42",3
same,"Subjects positive for treatment-emergent anti-peptide antibodies at any time, %","[2]; 100 mg QD, N=42",(7.1%)
same,"Subjects negative for treatment-emergent anti-peptide antibodies, %","[2]; 100 mg QD, N=42",92.9%
same,"Subjects positive for treatment-emergent anti-peptide antibodies, %","[2]; 100 mg QD, N=42",7.1%
same,Participants positive for ADA prior to the first dose (baseline),"[2]; 3 of 209, all 50 mg QD group",1.4%
same,"Footnote d group: Baseline titers 1:50, n subjects","[2]; Combined doses, N=209",3
same,"Peak titer group <50, n subjects","[2]; Combined doses, N=209",8
same,"Peak titer group >50-<100, n subjects","[2]; Combined doses, N=209",0
same,"Peak titer group ≥100-<1000, n subjects","[2]; Combined doses, N=209",0
same,"Peak titer group ≥1000, n subjects","[2]; Combined doses, N=209",0
same,"Positive at baseline: Baseline titers 1:50, n subjects","[2]; Combined doses, N=209",3
same,"Subjects positive at baseline who were treatment-boosted for antibodies (footnote d: titers did not increase 2-fold), %","[2]; Combined doses, N=209",(1.4%)
same,"Subjects positive for anti-peptide antibodies at baseline, %","[2]; Combined doses, N=209",(1.4%)
same,"Treatment-boosted (footnote c): Baseline titers 1:50, n subjects","[2]; Combined doses, N=209",0
same,"Treatment-emergent: Peak titers 1:50, n subjects","[2]; Combined doses, N=209",8
same,"Subjects positive for treatment-emergent anti-peptide antibodies at any time, %","[2]; Combined doses, N=209",(3.8%)
same,"Subjects negative for treatment-emergent anti-peptide antibodies, %","[2]; Combined doses, N=209",(96.2%)
same,"Subjects positive for treatment-emergent anti-peptide antibodies, %","[2]; Combined doses, N=209",(3.8%)
same,IL-17F serum levels,[3],Statistically significant reductions
same,BD-2 serum levels,[4],Statistically significant reduction
